Test results: patent US20220380383A1, “NEUROPROTECTIVE PDI MODULATING SMALL MOLECULES AND METHODS OF USE THEREOF” (THE TRUSTEES OF COLUMBIA UNIVERSITY IN THE CITY OF NEW YORK, priority 2018, published 2022)
Values after ≈ are worked out from the molar mass of the structure shown. Read-outs that look alike come from different tables or passages of the source.

How the values were obtained:
PC12 mHTTQ103 cells = assay: Rescue of PC12 cells from mHTTQ103-induced cell death; assay type: cell-based, rat; conditions: for EC50: Rattus norvegicus, PC-12
physchem = conditions: organic solvent or mixture
[1] = target: T1, human catalytic PDI A1 a domain (PDIa) (Homo sapiens, UniProt P07237); assay: Isothermal titration calorimetry (ITC) binding to PDIa
T1 construct: made in house; host or cells: Escherichia coli BL21-Gold (DE3)
Experimental: All ITC experiments were carried out at 25° C. on MicoCal Auto-ITC200 system (GE Healthcare). […] ITC titration experiments were carried out at 25° C. with 19 injections, 2 μl per injection, and 180 seconds between each injection. The reference cell power was set to 5 μcal/sec. A control experiment was performed for each compound, where each compound was titrated into buffer to account for heat released due to dilution. This background was subtracted from test data before a final dissociation constant was obtained. […] Gibbs free energy, ΔG, was calculated from equation ΔG=ΔH-TΔS. All other parameters, Ka, n, ΔH, ΔS, were determined directly from the titration data.
LOC14 analogs were designed and synthesized as described in the synthetic schemes. The analogs were evaluated for their binding to PDIa using isothermal titration calorimetry (ITC) (results of certain compounds are shown in FIGS. 1A-1E). Next, the analogs were tested for their ability to rescue PC12 cells from mHTT^Q103 induced cell death in a dose-dependent manner (results of certain compounds are shown in FIG. 2).

[2] = Solubility (stock solvent)
[3] = Tables 5-13, PC12 cells, read-out: EC50
[4] = rescue from mHTTQ103 induced cell death, read-out: PC12 cells EC50
[5] = rescue from mHTTQ103 induced cell death
[6] = N/A = not active, read-out: ITC KD
[7] = Tables 5-13, NA = not active, read-out: Kd
[8] = Tables 5-13, solvent not given (DMSO in Table 1)

T1 sequence (P07237 18-134): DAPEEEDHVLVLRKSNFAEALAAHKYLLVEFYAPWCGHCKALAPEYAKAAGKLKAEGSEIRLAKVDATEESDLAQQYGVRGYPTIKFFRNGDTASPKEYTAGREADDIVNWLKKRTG

SMILES	Kd [1, 7] [µM]	ITC KD ([1]; N/A = not active)	Solubility [2] [mM in DMSO]	Solubility [2, 8] [mM]	EC50 (PC12 mHTTQ103 cells; [3]) [µM]	EC50 (PC12 mHTTQ103 cells; [4]) [µM]	Max Viability (%) (PC12 mHTTQ103 cells; Tables 5-13, PC12 cells)	PC12 cells Max % Viability (PC12 mHTTQ103 cells; [5]) [%]	other results
Cc1nc2sn(CN3CCN(Cn4sc5nc(C)c(C)c(C)c5c4=O)CC3)c(=O)c2c(C)c1C [LC-71, 2,2′-(piperazine-1,4-diylbis(methylene))bis(4,5,6-trimethylisothiazolo[5,4-b]pyridin-3(2H)-one)]					1.02	1.02	41	40.98	Solubility (physchem; NMP (N-Methyl-2-Pyrrolidine)): 2.5 mM (≈ 1.25 mg/mL); Solubility (physchem; NMP): 2.5 mM (≈ 1.25 mg/mL)
Cc1nnc2sn(CN3CCN(Cn4sc5nnc(C)c(C)c5c4=O)CC3)c(=O)c2c1C [LC-72, 2,2′-(piperazine-1,4-diylbis(methylene))bis(4,5-dimethylisothiazolo[5,4-c]pyridazin-3(2H)-one)]							10	10.26	PC12 cells EC50 (PC12 mHTTQ103 cells; [5]): Not Active; Solubility (physchem; NMP (N-Methyl-2-Pyrrolidine)): 1 mM (≈ 0.473 mg/mL); Solubility (physchem; NMP): 1 mM (≈ 0.473 mg/mL)
O=C(C1CC1)N1CCN(Cn2sc3ncccc3c2=O)CC1 [LC-46]					2.83	2.83	39	39.23	Solubility (physchem; DMSO): 50 mM (≈ 15.9 mg/mL); Solubility (physchem): 50 mM (≈ 15.9 mg/mL); Kd ([1]; ITC assay, read-out: KD): 0.01 µM; Kd [1, 6]: 0.0096 µM
O=c1c2ccccc2sn1CN1CCC(CO)CC1 [LC-4]	0.265		100	100 (≈ 27.8 mg/mL)	0.343	0.343	60	60.18	
NC(=O)c1cccc(C(F)(F)F)c1SSc1c(C(N)=O)cccc1C(F)(F)F [LC-45]		KD = N/A irreversible or not active	100					16.98	PC12 cells EC50 (PC12 mHTTQ103 cells; [5]): Not Active
O=C(C1CC1)N1CCN(Cn2sc3ccc(Cl)cc3c2=O)CC1 [LC-15]	0.114		15	15 (≈ 5.28 mg/mL)	0.487	0.487	57	56.92	
O=c1c2ccccc2sn1CN1CCN(Cc2ccccc2)CC1 [LC-22]	0.173 ± 0.032		100	100 (≈ 33.9 mg/mL)	0.31		62	61.51	
NC(=O)c1cccc(F)c1SSc1c(F)cccc1C(N)=O [LC-44, 2,2′-disulfanediylbis(3-fluorobenzamide)]		KD = N/A irreversible or not active	100					87.19	
O=C(Nc1cccc(F)c1)c1ccccc1S [LC-30]		KD = N/A irreversible or not active	100	100 (≈ 24.7 mg/mL)	2.99		62	62.38	
O=c1c2ccccc2sn1CN1CCOCC1 [LC-18]	0.253		100	100 (≈ 25 mg/mL)	0.547		69	69.00	
O=C(C1CC1)N1CCN(Cn2sc3c(Cl)cccc3c2=O)CC1 [LC-39]		KD = N/A irreversible or not active	100	100 (≈ 35.2 mg/mL)			7	7.02	PC12 cells EC50 (PC12 mHTTQ103 cells; [5]): Not Active
Cc1ccc2c(=O)[nH]sc2c1 [LC-60, 6-Methylbenzo[d]isothiazol-3(2H)-one]	0.347		100	100 (≈ 16.5 mg/mL)	0.562	0.561	60	59.49	Kd [1, 6]: 0.347 µM
O=C(c1ccccc1)n1sc2ccccc2c1=O [LC-11]		KD = N/A irreversible or not active	100	100 (≈ 25.5 mg/mL)	> 50		28	27.72	

The next lines start with results.

Kd [1, 7] [µM]	ITC KD ([1]; N/A = not active)	Solubility [2] [mM in DMSO]	Solubility [2, 8] [mM]	SMILES	EC50 (PC12 mHTTQ103 cells; [3]) [µM]	EC50 (PC12 mHTTQ103 cells; [4]) [µM]	Max Viability (%) (PC12 mHTTQ103 cells; Tables 5-13, PC12 cells)	PC12 cells Max % Viability (PC12 mHTTQ103 cells; [5]) [%]	other results
0.24				Cc1ccc2sn(CN3CCN(C(=O)C4CC4)CC3)c(=O)c2c1 [LC-63, 2-((4-(cyclopropanecarbonyl)piperazin-1-yl)methyl)-5-methylbenzo[d]isothiazol-3(2H)-one]	0.659	0.659	66		Solubility (physchem; DMSO): 50 mM (≈ 16.6 mg/mL); Solubility (physchem): 50 mM (≈ 16.6 mg/mL); Kd [1, 6]: 0.24 µM
0.7				O=c1c2cccc(F)c2sn1CN1CCN(Cn2sc3c(F)cccc3c2=O)CC1 [LC-69, 2,2′-(piperazine-1,4-diylbis(methylene))bis(7-fluorobenzo[d]isothiazol-3(2H)-one)]	1.97	1.97	46	45.50	Solubility (physchem; NMP (N-Methyl-2-Pyrrolidine)): 5 mM (≈ 2.24 mg/mL); Solubility (physchem; NMP): 5 mM (≈ 2.24 mg/mL); Kd ([1]; FIG. 1, PDI A1a titrated into compound in 0.8% NMP, read-out: Kd1): 0.7 µM; Kd [1, 6]: 0.7 µM
	KD = N/A irreversible or not active	100	100 (≈ 31.9 mg/mL)	O=C(Nc1ccc(Cc2ccccc2)cc1)c1ccccc1S [LC-23]	3.88		57	56.53	
	KD = N/A irreversible or not active	100	100 (≈ 31.9 mg/mL)	O=c1c2ccccc2sn1-c1ccc(Oc2ccccc2)cc1 [LC-37]	1.68		22	21.77	
	KD = N/A irreversible or not active	100	100 (≈ 18.6 mg/mL)	O=c1[nH]sc2c(Cl)cccc12 [LC-38]			8	7.63	PC12 cells EC50 (PC12 mHTTQ103 cells; [5]): Not Active
		100		C#CCn1sc2ccccc2c1=O [LC-66, 2-(prop-2-yn-1-yl)benzo[d]isothiazol-3(2H)-one]		0.763		40.34	Kd ([1]; two-site binding, first site, read-out: ITC KD1): 0.0307 µM; Kd ([1]; two-site binding, second site, read-out: ITC KD2): 14.4 µM
	KD = N/A irreversible or not active	100	100 (≈ 32.2 mg/mL)	Cc1ccc(NC(=O)c2ccccc2S)c(Br)c1 [LC-34]	3.77		42	41.95	
	KD = N/A irreversible or not active	100	100 (≈ 24.5 mg/mL)	O=c1c2ccccc2sn1-c1cccc(F)c1 [LC-31]	1.77		36	36.24	
0.658		100	100 (≈ 25.5 mg/mL)	C[C@H](c1ccccc1)n1sc2ccccc2c1=O [LC-29]	0.669	0.669	42	42.02	
	KD = N/A irreversible or not active	100	100 (≈ 18.4 mg/mL)	S=c1ssc2ccccc12 [LC-49]			9	8.75	PC12 cells EC50 (PC12 mHTTQ103 cells; [5]): Not Active
	Not active or irreversible	100		O=c1c2ccccc2on1Cc1ccccc1 [LC-67, 2-benzylbenzo[d]isoxazol-3(2H)-one]				8.05	PC12 cells EC50 (PC12 mHTTQ103 cells; [5]): not active
